Measurements from patent US20240269139A1, “COMPOUNDS FOR TARGETED PROTEIN DEGRADATION OF KINASES” (DANA-FARBER CANCER INSTITUTE, INC., priority 2020, published 2024).
Like-named read-outs stand apart in the source and are kept apart here.

Assays:
Assay type in all cases: cell-based
[1] = biological target: T1, protein kinases (human kinome) (Homo sapiens, UniProt O14965)
T1 sequence (O14965 1-403): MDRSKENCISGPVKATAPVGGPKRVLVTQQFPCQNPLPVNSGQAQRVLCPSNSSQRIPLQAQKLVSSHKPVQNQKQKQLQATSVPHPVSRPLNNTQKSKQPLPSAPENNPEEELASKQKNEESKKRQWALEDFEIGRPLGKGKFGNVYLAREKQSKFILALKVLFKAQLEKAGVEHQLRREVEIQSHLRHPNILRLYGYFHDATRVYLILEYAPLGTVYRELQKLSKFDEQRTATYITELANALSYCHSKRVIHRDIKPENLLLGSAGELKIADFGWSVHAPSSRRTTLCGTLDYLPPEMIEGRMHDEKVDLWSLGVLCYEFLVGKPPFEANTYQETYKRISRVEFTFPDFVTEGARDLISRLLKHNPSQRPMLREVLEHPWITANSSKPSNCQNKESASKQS

[2] = biological target: protein kinases (human kinome) (Homo sapiens, UniProt Q9H0K1); conditions: for logFC of SIK2: Accession Q9H0K1; for logFC SIK2 (Q9H0K1): direction of change down
[3] = biological target: T2, protein kinases (human kinome) (Homo sapiens, UniProt O14976); conditions: for logFC GAK: GAK (O14976)
T2 sequence (O14976 1-1311): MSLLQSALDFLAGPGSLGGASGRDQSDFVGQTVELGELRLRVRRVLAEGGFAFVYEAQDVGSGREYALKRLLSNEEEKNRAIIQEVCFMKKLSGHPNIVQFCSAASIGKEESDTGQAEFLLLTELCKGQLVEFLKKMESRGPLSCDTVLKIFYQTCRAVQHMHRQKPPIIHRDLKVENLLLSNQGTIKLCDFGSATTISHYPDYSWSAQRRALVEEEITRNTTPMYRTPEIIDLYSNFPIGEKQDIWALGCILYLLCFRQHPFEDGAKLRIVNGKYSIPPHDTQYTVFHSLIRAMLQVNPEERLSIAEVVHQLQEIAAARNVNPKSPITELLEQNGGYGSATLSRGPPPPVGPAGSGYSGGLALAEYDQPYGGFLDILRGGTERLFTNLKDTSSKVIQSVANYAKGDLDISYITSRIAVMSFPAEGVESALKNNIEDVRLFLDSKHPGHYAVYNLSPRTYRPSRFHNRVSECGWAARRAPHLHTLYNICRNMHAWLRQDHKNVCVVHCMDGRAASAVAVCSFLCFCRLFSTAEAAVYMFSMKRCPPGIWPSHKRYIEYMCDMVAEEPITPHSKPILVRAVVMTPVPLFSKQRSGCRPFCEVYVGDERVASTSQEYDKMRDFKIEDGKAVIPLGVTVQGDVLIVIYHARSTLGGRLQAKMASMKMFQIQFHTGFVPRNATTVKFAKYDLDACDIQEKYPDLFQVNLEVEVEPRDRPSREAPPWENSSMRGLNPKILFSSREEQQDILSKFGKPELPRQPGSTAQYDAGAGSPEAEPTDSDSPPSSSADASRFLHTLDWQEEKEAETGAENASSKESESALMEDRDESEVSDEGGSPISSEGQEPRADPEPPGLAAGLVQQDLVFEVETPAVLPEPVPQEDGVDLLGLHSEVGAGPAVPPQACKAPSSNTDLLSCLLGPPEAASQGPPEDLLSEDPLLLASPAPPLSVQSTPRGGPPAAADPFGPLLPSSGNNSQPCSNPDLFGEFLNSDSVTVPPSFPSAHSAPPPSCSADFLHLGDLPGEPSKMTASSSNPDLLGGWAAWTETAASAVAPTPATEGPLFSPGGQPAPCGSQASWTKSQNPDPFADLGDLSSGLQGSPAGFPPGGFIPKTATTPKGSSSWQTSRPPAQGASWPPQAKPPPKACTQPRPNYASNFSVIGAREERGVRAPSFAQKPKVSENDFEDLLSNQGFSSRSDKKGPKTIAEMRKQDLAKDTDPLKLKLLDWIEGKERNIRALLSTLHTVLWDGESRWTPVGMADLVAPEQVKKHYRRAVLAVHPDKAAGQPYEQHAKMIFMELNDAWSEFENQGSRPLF

[4] = direction down, experiment wp131
[5] = direction down, experiment wp016

Chain of protein kinases (human kinome) (Homo sapiens, UniProt Q9H0K1) (Q9H0K1 whole entry): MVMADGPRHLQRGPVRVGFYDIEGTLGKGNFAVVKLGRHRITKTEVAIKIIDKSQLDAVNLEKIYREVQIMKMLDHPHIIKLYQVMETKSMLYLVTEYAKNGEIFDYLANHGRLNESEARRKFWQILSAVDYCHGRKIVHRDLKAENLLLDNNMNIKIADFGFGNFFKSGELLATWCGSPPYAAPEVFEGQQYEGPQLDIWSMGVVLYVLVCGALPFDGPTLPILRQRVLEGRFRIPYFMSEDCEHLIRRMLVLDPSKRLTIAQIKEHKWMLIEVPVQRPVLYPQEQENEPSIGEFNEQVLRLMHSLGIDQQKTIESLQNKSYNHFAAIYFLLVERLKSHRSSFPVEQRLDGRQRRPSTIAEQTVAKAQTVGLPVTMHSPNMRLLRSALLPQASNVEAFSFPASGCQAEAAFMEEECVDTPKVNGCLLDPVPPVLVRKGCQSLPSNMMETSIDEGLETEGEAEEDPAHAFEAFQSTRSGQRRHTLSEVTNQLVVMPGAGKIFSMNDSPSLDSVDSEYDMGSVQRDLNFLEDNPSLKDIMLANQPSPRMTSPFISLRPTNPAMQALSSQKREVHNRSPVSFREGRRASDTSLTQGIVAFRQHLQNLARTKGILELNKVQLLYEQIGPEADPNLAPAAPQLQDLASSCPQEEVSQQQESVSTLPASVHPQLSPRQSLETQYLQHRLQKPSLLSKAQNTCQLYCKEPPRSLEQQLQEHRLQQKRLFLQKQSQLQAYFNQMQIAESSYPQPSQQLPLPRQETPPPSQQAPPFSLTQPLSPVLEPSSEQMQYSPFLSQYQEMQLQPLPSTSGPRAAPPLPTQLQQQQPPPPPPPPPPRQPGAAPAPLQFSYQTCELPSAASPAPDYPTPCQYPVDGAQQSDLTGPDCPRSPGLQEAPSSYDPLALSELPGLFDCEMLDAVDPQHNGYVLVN

Compound: Cc1ncsc1-c1ccc([C@H](C)NC(=O)[C@@H]2C[C@@H](O)CN2C(=O)[C@@H](NC(=O)CCOCCOCCN2CCN(c3ccc(Nc4ncc(Cl)c(Nc5ccccc5S(=O)(=O)C(C)C)n4)cc3)CC2)C(C)(C)C)cc1 [FMF.06.098.1]
- logFC AURKA (O14965) ([1]; experiment wp114): −0.4151
- logFC AURKA (O14965) ([1]; experiment wp131): −0.3471
- logFC of SIK2 ([2]; experiment wp114): −0.4985
- logFC of SIK2 ([2]; experiment wp131): −0.602
- logFC SIK2 (Q9H0K1) ([2]; Experiment wp114): −0.4985
- logFC SIK2 (Q9H0K1) ([2]; experiment wp131): −0.602
- logFC of GAK (O14976) ([3]; Experiment wp108, down): −0.4156
- logFC of GAK (O14976) ([3]; Experiment wp131, down): −0.3469
- logFC GAK ([3]; direction down, experiment wp108): −0.4156
- logFC GAK [3, 4]: −0.3469

Compound: Cn1c(=O)c(-c2c(Cl)cccc2Cl)cc2cnc(Nc3ccc(OCCNC(=O)CCCCCCNC(=O)COc4cccc5c4C(=O)N(C4CCC(=O)NC4=O)C5=O)cc3)nc21 (stereo not shown) [SB1.G.192.1]
- logFC AURKA (O14965) ([1]; experiment wp071): −0.8111
- logFC AURKA (O14965) ([1]; experiment wp081): −0.7299
- logFC AURKA (O14965) ([1]; experiment wp131): −0.6267
- logFC of SIK2 ([2]; experiment wp071): −1.036
- logFC of SIK2 ([2]; experiment wp081): −1.196
- logFC of SIK2 ([2]; experiment wp131): −0.9342
- logFC SIK2 ([2]; SIK2 (Q9H0K1), experiment wp071, down): −1.036
- logFC SIK2 (Q9H0K1) ([2]; experiment wp081): −1.196
- logFC SIK2 (Q9H0K1) ([2]; experiment wp131): −0.9342
- logFC of GAK (O14976) ([3]; Experiment wp071, down): −1.765
- logFC of GAK (O14976) ([3]; Experiment wp081, down): −1.409
- logFC of GAK (O14976) ([3]; Experiment wp131, down): −1.475
- logFC GAK ([3]; direction down, experiment wp071): −1.765
- logFC GAK ([3]; direction down, experiment wp081): −1.409
- logFC GAK [3, 4]: −1.475

Compound: CC(C)S(=O)(=O)c1ccccc1Nc1nc(Nc2ccc(N3CCN(CCOCCNC(=O)CNc4cccc5c4C(=O)N(C4CCC(=O)NC4=O)C5=O)CC3)cc2)ncc1Cl (stereo not shown) [SK.3.91]
- logFC AURKA (O14965) ([1]; Experiment wp160, 2 hr): −0.8456
- logFC AURKA (O14965) ([1]; Experiment wp172): −2.048
- logFC AURKA (O14965) ([1]; experiment wp016): −1.908
- logFC AURKA (O14965) ([1]; experiment wp016, 1 uM): −3.024
- logFC AURKA (O14965) ([1]; experiment wp103): −1.587
- logFC AURKA (O14965) ([1]; experiment wp105): −1.837
- logFC AURKA (O14965) ([1]; experiment wp107): −3.069
- logFC AURKA (O14965) ([1]; experiment wp114): −1.228
- logFC AURKA (O14965) ([1]; experiment wp133, 1 hr): −1.329
- logFC AURKA (O14965) ([1]; experiment wp133, 2 hr): −2.092
- logFC AURKA (O14965) ([1]; experiment wp133, 4 hr): −3.745
- logFC AURKA (O14965) ([1]; experiment wp160, 1 hr): −0.547
- logFC AURKA (O14965) ([1]; experiment wp160, 4 hr): −1.391
- logFC of SIK2 ([2]; experiment wp105): −0.5386
- logFC of SIK2 ([2]; experiment wp107): −1.568
- logFC of SIK2 ([2]; experiment wp114): −0.5757
- logFC of SIK2 ([2]; experiment wp133, 2 hr): −0.4938
- logFC of SIK2 ([2]; experiment wp133, 4 hr): −1.035
- logFC of SIK2 ([2]; experiment wp160, 2 hr): −0.5413
- logFC of SIK2 ([2]; experiment wp160, 4 hr): −0.8364
- logFC SIK2 (Q9H0K1) ([2]; Experiment wp105): −0.5386
- logFC SIK2 (Q9H0K1) ([2]; Experiment wp114): −0.5757
- logFC SIK2 (Q9H0K1) ([2]; experiment wp107): −1.568
- logFC SIK2 (Q9H0K1) ([2]; experiment wp133, 2 hr): −0.4938
- logFC SIK2 (Q9H0K1) ([2]; experiment wp133, 4 hr): −1.035
- logFC SIK2 (Q9H0K1) ([2]; experiment wp160, 2 hr): −0.5413
- logFC SIK2 (Q9H0K1) ([2]; experiment wp160, 4 hr): −0.8364
- logFC of GAK (O14976) ([3]; Experiment wp016, 1 uM, down): −0.3526
- logFC of GAK (O14976) ([3]; Experiment wp016, down): −0.5011
- logFC of GAK (O14976) ([3]; Experiment wp105, down): −0.3832
- logFC GAK [3, 5]: −0.5011
- logFC GAK ([3]; direction down, experiment wp018, 1 uM): −0.3526
- logFC GAK ([3]; direction down, experiment wp105): −0.3832
- logFC GAK ([3]; direction down, experiment wp160, 4 hr): −0.3241
- logFC GAK ([3]; experiment wp160, 4 hr, down): −0.3241

Compound: CC(C)S(=O)(=O)c1ccccc1Nc1nc(Nc2ccc(N3CCN(CCOCCOCCNC(=O)CNc4cccc5c4C(=O)N(C4CCC(=O)NC4=O)C5=O)CC3)cc2)ncc1Cl (stereo not shown) [TL12.186]
- logFC AURKA (O14965) ([1]; experiment wp016): −1.758
- logFC AURKA (O14965) ([1]; experiment wp131): −3.193
- logFC AURKA (O14965) ([1]; experiment wp137): −2.642
- logFC of SIK2 ([2]; experiment wp131): −1.317
- logFC SIK2 (Q9H0K1) ([2]; experiment wp131): −1.317
- logFC of GAK (O14976) ([3]; Experiment wp016, down): −0.3354
- logFC GAK [3, 5]: −0.3354
